Results reported in patent publication US6329421A, “Diaryl bicyclic heterocycles as inhibitors of cyclooxygenase-2” (Merck Frosst Canada & Co., priority 1997, dated 2001).

Experiments:
cyclooxygenase-2 = biological target: T1, cyclooxygenase-2 (Homo sapiens, UniProt P35354); assay: Inhibition of cyclooxygenase activity: Cox-2 (PGE2 production in response to arachidonic acid, radioimmunoassay; human osteosarcoma 143 cells); format: cell-based; conditions: read-out: Cox-2% inhib.; for inhibition at 0.1 µM: Conc. 100 nM; for inhibition at 1 µM: Conc. 1000 nM
T1 construct: human osteosarcoma 143 cells (which specifically express cyclooxygenase-2); endogenous in cells; host or cells: human osteosarcoma 143 cells
T1 sequence (P35354 18-604): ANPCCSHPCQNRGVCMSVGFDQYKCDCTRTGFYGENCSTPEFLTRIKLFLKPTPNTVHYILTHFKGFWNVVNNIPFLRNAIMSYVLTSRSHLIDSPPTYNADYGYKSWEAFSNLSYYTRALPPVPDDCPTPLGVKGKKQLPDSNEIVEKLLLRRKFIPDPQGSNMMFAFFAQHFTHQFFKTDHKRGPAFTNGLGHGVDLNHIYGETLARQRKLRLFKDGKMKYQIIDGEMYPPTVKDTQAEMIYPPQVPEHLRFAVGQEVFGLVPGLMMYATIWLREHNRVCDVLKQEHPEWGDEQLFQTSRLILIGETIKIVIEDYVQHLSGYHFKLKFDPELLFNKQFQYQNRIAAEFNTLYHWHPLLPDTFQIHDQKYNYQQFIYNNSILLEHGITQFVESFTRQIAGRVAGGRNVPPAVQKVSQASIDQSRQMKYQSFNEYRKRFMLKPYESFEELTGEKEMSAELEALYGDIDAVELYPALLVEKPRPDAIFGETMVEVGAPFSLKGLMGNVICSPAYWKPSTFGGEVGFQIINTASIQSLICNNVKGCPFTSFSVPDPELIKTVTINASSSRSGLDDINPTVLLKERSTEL
Protocol: (§1) Compounds were tested as inhibitors of cyclooxygenase activity in whole cell and microsomal cyclooxygenase assays. Both of these assays measured prostaglandin E2 synthesis in response to arachidonic acid, using a radioimmunoassay. Cells used for whole cell assays, and from which microsomes were prepared for microsomal assays, were human osteosarcoma 143 cells (which specifically express cyclooxygenase-2) and human U-937 cells (which specifically express cyclooxygenase-1). In these assays, 100% activity is defined as the difference between prostaglandin E2 synthesis in the absence and presence of arachidonate addition. Compounds of the present invention are inhibitors of cyclooxygenase-2 and are thereby useful in the treatment of cyclooxygenase-2 mediated diseases as enumerated above. The activities of the compounds against cyclooxygenase may be seen in the representative results shown below. In the assay, inhibition is determined by measuring the amount of prostaglandin E2 (PGE2) synthesized in the presence of arachidonic acid, cyclooxygenase-1 or cyclooxygenase-2 and a putative inhibitor. The IC50 values represent the concentration of putative inhibitor required to return PGE2 synthesis to 50% of that obtained as compared to the uninhibited control. For purposes of this specification, a compound is a selective inhibitor of COX-2 over COX-1 if the ratio of IC50 's for COX-1: COX-2 is 100 or greater, preferably 500 or greater. The results for inhibition of PGE2 production may be seen in Table III.

cyclooxygenase-1 = biological target: T2, cyclooxygenase-1 (Homo sapiens, UniProt P23219); assay: Inhibition of cyclooxygenase activity: Cox-1 (PGE2 production in response to arachidonic acid, radioimmunoassay; human U-937 cells); format: cell-based; conditions: read-out: Cox-1% inhib.; for inhibition at 0.1 µM: Conc. 100 nM; for inhibition at 1 µM: Conc. 1000 nM
T2 construct: human U-937 cells (which specifically express cyclooxygenase-1); endogenous in cells; host or cells: human U-937 cells
T2 sequence (P23219 24-599): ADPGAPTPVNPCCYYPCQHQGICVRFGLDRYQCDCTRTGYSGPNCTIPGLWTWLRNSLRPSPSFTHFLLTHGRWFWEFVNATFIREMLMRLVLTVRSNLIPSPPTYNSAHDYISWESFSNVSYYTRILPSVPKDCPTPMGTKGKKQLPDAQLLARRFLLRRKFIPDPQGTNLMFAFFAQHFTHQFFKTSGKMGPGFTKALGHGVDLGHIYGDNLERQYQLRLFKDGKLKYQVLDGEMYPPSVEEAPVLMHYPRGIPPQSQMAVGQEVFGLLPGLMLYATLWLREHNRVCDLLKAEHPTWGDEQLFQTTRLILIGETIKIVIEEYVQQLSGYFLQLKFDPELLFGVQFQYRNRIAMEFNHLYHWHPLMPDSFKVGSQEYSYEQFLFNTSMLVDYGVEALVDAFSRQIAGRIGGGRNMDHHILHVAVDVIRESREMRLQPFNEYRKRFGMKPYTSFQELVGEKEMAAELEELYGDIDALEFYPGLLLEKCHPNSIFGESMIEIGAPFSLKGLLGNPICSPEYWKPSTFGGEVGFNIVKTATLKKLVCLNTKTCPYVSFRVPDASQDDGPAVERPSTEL
Protocol: as §1

| Compound | inhibition at 0.1 µM (cyclooxygenase-2) | inhibition at 0.1 µM (cyclooxygenase-1) | inhibition at 1 µM (cyclooxygenase-2) | inhibition at 1 µM (cyclooxygenase-1) | also measured |
| --- | --- | --- | --- | --- | --- |
| CS(=O)(=O)c1ccc(-c2c(-c3ccccc3)oc3ccccc23)cc1 [Example 1, 3-(4-(Methylsulfonyl)phenyl)-2-phenylbenzo[b]furan] | 94% | 0% | – | – | – |
| CS(=O)(=O)c1ccc(-c2c(-c3ccccc3)sc3ccccc23)cc1 [Example 2, 3-(4-(Methanesulfonyl)phenyl)-2-phenylbenzo[b]thiophene] | – | – | 17% | 3% | – |
| CS(=O)(=O)c1ccc(C2=C(c3ccccc3)C(=O)c3ccccc32)cc1 [Example 3, 3-(4-(Methylsulfonyl)phenyl)-2-phenylinden-1-one] | 80% | 5% | – | – | – |
| CS(=O)(=O)c1ccc(-c2c(-c3ccc(F)cc3)[nH]c3ccccc23)cc1 [Example 4, 2-(4-Fluorophenyl)-3-(4-(methylsulfonyl)phenyl)indole] | – | – | – | 0% | inhibition at 0.01 µM (cyclooxygenase-2; Conc. 10 nM): 58% |
| CS(=O)(=O)c1ccc(-c2[nH]c3ccccc3c2-c2ccc(F)cc2)cc1 [Example 5, 3-(4-Fluorophenyl)-2-(4-(methylsulfonyl)phenyl)indole] | 86% | 21% | – | – | – |
| CS(=O)(=O)c1ccc(-c2c(-c3ccc(F)cc3)sc3c2COC3=O)cc1 [Example 6, 2-(4-Fluorophenyl)-3-(4-(methylsulfonyl)phenyl)-4H-thieno[2,3-c]furan-6-one] | – | – | – | – | inhibition at 0.015 µM (cyclooxygenase-2; Conc. 15 nM): 50%; inhibition at 0.015 µM (cyclooxygenase-1; Conc. 15 nM): 0% |
| CS(=O)(=O)c1ccc(-c2c(-c3ccc(F)c(F)c3)sc3c2COC3=O)cc1 [Example 7, 2-(3,4-Difluorophenyl)-3-(4-(methylsulfonyl)phenyl)-4H-thieno[2,3-c]-furan-6-one] | 64% | – | 100% | 4% | – |
| NS(=O)(=O)c1ccc(-c2c(-c3ccc(F)cc3)sc3c2COC3=O)cc1 [Example 8, 2-(4-Fluorophenyl)-3-(4-(aminosulfonyl)phenyl)-4H-thieno[2,3-c]furan-6-one] | 42% | – | – | – | inhibition at 10 µM (cyclooxygenase-1; Conc. 10000 nM): 26% |
| NS(=O)(=O)c1ccc(-c2c(-c3ccc(F)c(F)c3)sc3c2COC3=O)cc1 [Example 9, 2-(3,4-Difluorophenyl)-3-(4-(aminosulfonyl)phenyl)4H-thieno-[2,3-c]furan-6-one] | 98% | – | 99% | 21% | – |
| CS(=O)(=O)c1ccc(-c2c(-c3ccccc3)sc3c2CC(=O)OC3)cc1 [Example 10, 3-(4-(Methylsulfonyl)phenyl)-2-phenyl-4,7-dihydro-thieno[2,3-c]pyran-5-one] | 65% | – | 91% | 28% | – |
